Results on four compounds are retold here after ChEMBL document CHEMBL5241069, “A key review on oxadiazole analogs as potential methicillin-resistant Staphylococcus aureus (MRSA) activity: Structure-activity relationship studies” (Eur J Med Chem, 2021).

The test system of data set [1] is Staphylococcus aureus. The experiment in a line: Antibiofilm activity against methicillin resistant Staphylococcus aureus ATCC 43866 assessed as inhibition of biofilm formation incubated for 18 to 24 hrs by tissue culture plate method. The class given is functional. To be noted: time 18-24 hrs.
Data set [2] concerns Staphylococcus aureus. The data set can be described thus: Potency index, ratio of vancomycin MIC to test compound MIC for antibacterial activity against methicillin resistant Staphylococcus aureus ATCC 43866 assessed as inhibition of biofilm formation incubated for 18 to 24 hrs by tissue culture plate method. It counts as functional. The following applies: time 18-24 hrs.
In data set [3] the test system is Staphylococcus aureus. The experiment in a line: Antibacterial activity against methicillin resistant Staphylococcus aureus MW2 assessed as inhibition of bacterial growth incubated for 16 to 20 hrs by CLSI protocol based Mueller-Hinton broth method. It counts as functional. To be noted: time 16-20 hrs.
Data set [4] has as its system Staphylococcus aureus. The experiment in a line: Antibacterial activity against methicillin resistant Staphylococcus aureus USA300 assessed as inhibition of bacterial growth incubated for 16 to 20 hrs by CLSI protocol based Mueller-Hinton broth method. The class given is functional. To be noted: time 16-20 hrs.
Data set [5] can be described thus: Cytotoxicity against human HepG2 cells assessed as inhibition of cell growth incubated for 24 hrs by WST-1 assay. It counts as toxicity, cell-based. To be noted: read-out: LD50. For orientation: Tetrazolium dyes change colour on reduction, which living cells bring about.
Data set [6] has as its system Staphylococcus aureus. The data set can be described thus: Antibacterial activity methicillin resistant Staphylococcus aureus NRS123 (USA 400) assessed as inhibition of bacterial growth by broth microdilution method. The class given is functional. A general note: Broth dilution looks for growth in wells or tubes with falling amounts of substance.
Data set [7] relates to Staphylococcus aureus. The experiment in a line: Antibacterial activity methicillin resistant Staphylococcus aureus NRS384 (USA 300) assessed as inhibition of bacterial growth by broth microdilution method. The class given is functional.
Data set [8] deals with Staphylococcus aureus. The data set can be described thus: Antibacterial activity methicillin resistant Staphylococcus aureus NRS 383 (USA 200) assessed as inhibition of bacterial growth by broth microdilution method. It counts as functional.
Data set [9] concerns Staphylococcus aureus. The experiment in a line: Antibacterial activity methicillin resistant Staphylococcus aureus NRS 382 (USA 100) assessed as inhibition of bacterial growth by broth microdilution method. It counts as functional.
Data set [10] concerns Staphylococcus aureus. The data set can be described thus: Antibacterial activity methicillin resistant Staphylococcus aureus NRS 119 assessed as inhibition of bacterial growth by broth microdilution method. The class given is functional. The following applies: NRS119.
Data set [11] concerns Staphylococcus aureus. The experiment in a line: Antibacterial activity methicillin resistant Staphylococcus aureus NRS 194 assessed as inhibition of bacterial growth by broth microdilution method. The class given is functional.
For data set [12], the system named is Staphylococcus aureus. The experiment in a line: Antibacterial activity methicillin resistant Staphylococcus aureus NRS 108 assessed as inhibition of bacterial growth by broth microdilution method. It counts as functional.
The subject of data set [13] is Staphylococcus aureus. The data set can be described thus: Antibacterial activity methicillin resistant Staphylococcus aureus 2658 RCMB assessed as inhibition of bacterial growth by broth microdilution method. The class given is functional.
Data set [14] has as its system Staphylococcus aureus. The experiment in a line: Antibacterial activity methicillin resistant Staphylococcus aureus NRS 385 (USA 500) assessed as inhibition of bacterial growth by broth microdilution method. It counts as functional.
Data set [15] concerns Staphylococcus aureus. The data set can be described thus: Antibacterial activity methicillin resistant Staphylococcus aureus NRS 386 (USA 700) assessed as inhibition of bacterial growth by broth microdilution method. The class given is functional.
Data set [16] relates to Staphylococcus aureus. The experiment in a line: Antibacterial activity methicillin resistant Staphylococcus aureus NRS 387 (USA 800) assessed as inhibition of bacterial growth by broth microdilution method. The class given is functional.
Data set [17] deals with Staphylococcus aureus. The data set can be described thus: Antibacterial activity methicillin resistant Staphylococcus aureus NRS 483 (USA 1000) assessed as inhibition of bacterial growth by broth microdilution method. It counts as functional.
Data set [18] deals with Staphylococcus aureus. The data set can be described thus: Antibacterial activity methicillin resistant Staphylococcus aureus NRS 484 (USA 1100) assessed as inhibition of bacterial growth by broth microdilution method. It counts as functional.
In data set [19] the test system is Staphylococcus aureus. The experiment in a line: Antibiofilm activity against methicillin resistant Staphylococcus aureus assessed as reduction in biofilm formation at 2 times of MIC by microtiter plate biofilm formation assay. It counts as functional. Also on record: scale not given: the % may be the effect or the level left.
Data set [20] is described as follows: Half-life in rat at 25 mg/kg, po. The following applies: in vivo. The class given is ADME, organism-based.
Data set [21] concerns Staphylococcus aureus. The data set can be described thus: Antimicrobial activity against methicillin resistant Staphylococcus aureus 1 assessed as inhibition of bacterial growth incubated for 16 to 20 hrs by CLSI protocol based Muller-Hinton broth method. It counts as functional. The following applies: time 16-20 hrs.
In data set [22] the test system is Staphylococcus aureus. The experiment in a line: Antimicrobial activity against methicillin resistant Staphylococcus aureus 2 assessed as inhibition of bacterial growth incubated for 16 to 20 hrs by CLSI protocol based Muller-Hinton broth method. It counts as functional. The following applies: time 16-20 hrs.
The test system of data set [23] is Staphylococcus aureus. The data set can be described thus: Antimicrobial activity against methicillin resistant Staphylococcus aureus 3 assessed as inhibition of bacterial growth incubated for 16 to 20 hrs by CLSI protocol based Muller-Hinton broth method. To be noted: time 16-20 hrs. The class given is functional.
The nature of data set [24]: Cytotoxicity against rat NRK-52E cells assessed as inhibition of cell growth incubated for 24 hrs by CCK-8 assay. The class given is toxicity, cell-based.

The term MBC denotes the lowest tested concentration that kills the bacteria rather than only halting them. A word on the half-life: it is how long it takes for the measured level to halve. Usually IC50 stands for the point on the concentration scale where inhibition reaches its midpoint.

The structures appear in SMILES notation. Values after ≈ are worked out from the molar mass of the structure shown.

Regarding `Cn1c(-c2nnc(-c3ccc(Cl)cc3Cl)o2)cc(Br)c1Br`, the MIC with Staphylococcus aureus [1] was 0.78 µg/mL (≈ 1.73 µM). Also, the Ratio with Staphylococcus aureus [2] is reported as 4.

With `O=C(Nc1nnc(-c2ccc3c(c2)CCCC3)o1)C1CC1`, the minimal bactericidal concentration (MBC) in the data set on Staphylococcus aureus [3] and with Staphylococcus aureus [4] was 16 µg/mL (≈ 56.5 µM) in each case. Besides, the CC50 at 24 h in data set [5] is above 32 µg/mL.

Regarding `Cc1nc(-c2ccc(C(C)(C)C)cc2)sc1-c1nnc(N2CC(O)C2)o1`, the MIC in the data set on Staphylococcus aureus [6], in the data set with Staphylococcus aureus [7], in the data set on Staphylococcus aureus [8], with Staphylococcus aureus [9], with Staphylococcus aureus [10] and in the data set on Staphylococcus aureus [11] was 4 µg/mL (≈ 10.8 µM) each time. Moreover, the MIC in the data set with Staphylococcus aureus [12] is 4 µg/mL (≈ 10.8 µM); in the data set on Staphylococcus aureus [13], 3.12 µg/mL (≈ 8.42 µM); in the data set with Staphylococcus aureus [14], 4 µg/mL (≈ 10.8 µM); in the data set with Staphylococcus aureus [15], 4 µg/mL (≈ 10.8 µM); with Staphylococcus aureus [16], 4 µg/mL (≈ 10.8 µM); with Staphylococcus aureus [17], 4 µg/mL (≈ 10.8 µM). In addition, the MIC with Staphylococcus aureus [18] was 4 µg/mL (≈ 10.8 µM). The Activity in the data set with Staphylococcus aureus [19] was found to be 41%. In [20], this compound showed a half-life of 5.5 h.

Take `CCn1cc(C(=O)O)c(=O)c2cc(F)c(N3CCN(Cc4nnc(-c5cccc(OC)c5)o4)CC3)cc21`: the values for the MIC with Staphylococcus aureus [21], in the data set with Staphylococcus aureus [22] and in the data set with Staphylococcus aureus [23] were 0.5 µg/mL (≈ 0.985 µM), 0.25 µg/mL (≈ 0.493 µM) and 1 µg/mL (≈ 1.97 µM), respectively. Moreover, the IC50 at 24 h in data set [24] was above 200 µg/mL.
